Tests used:
A549 cells [1] = assay: Cell size (FSC) and complexity (SSC) by flow cytometry; format: cell-based, human; settings: A549, 10 µM, UV irradiation
Method: To corroborate further the observed phenomena, we determined morphology changes in 2M-, 1-, and 1M-treated A549 cells after exposing them to UV light. Morphology changes were determined by flow cytometry, which allows the assessment of cell size (FSC) and complexity (SSC). […] This increase was the most pronounced in cells treated with 1 and 1M.

A549 cells [2] = assay: MTT cell viability assay, A549, with or without UV light; format: cell-based, human; settings: for Ratio of IC50 non-irradiated vs UV-irradiated: A549; for Cytotoxic effect: A549, 10 μM and 1 μM, without UV; for Cytotoxic effect / IC50: MTT; for IC50: Homo sapiens, light or radiation study, 72 h
Method: Cells. Commercially available from American Type Culture Collection (ATCC), human epithelial lung adenocarcinoma A549 (ATCC® CCL-185™) and human normal lung fibroblast WI-38 (ATCC® CCL-75™) were grown according to supplier’s conditions, namely in Dulbecco Modified Eagle’s Medium (DMEM, Sigma Aldrich, St. Louis, MO, USA) supplemented with 10% of fetal bovine serum (FBS, Sigma Aldrich, USA). Cells were incubated in the cell incubator (Thermo Fischer Scientific, Waltham, MA, USA) at 37 °C and 5% CO2 in a humidified atmosphere.
Cell viability assay. In order to obtain a 10 mM stock solution chemical compounds (2M, 1, and 1M) were sterilely diluted in an appropriate volume of dimethyl sulfoxide solution (DMSO, Gram-Mol, Zagreb, Croatia). Solutions were kept in the dark and stored at 4 °C. The cytotoxic effects of each compound were assayed on A549 and WI-38 cells. […] Briefly, cells were seeded in 96-well tissue culture plates and 24 h later treated with 2M, 1, or 1M in the concentration range of 10–0.1 μM. Cells treated with the same dilutions of DMSO represented the control, while cells treated only with DMEM (10% FBS) represented the negative control. After 72 h, the media was removed, MTT solution was added into each well, and the plate was incubated (37 °C, 5% CO2) for 3 h. The resulting MTT-formazan products were dissolved using DMSO, and their absorbance at 600 nm was measured using a microplate reader.
For determining the effect of UV exposure, cells were seeded on two plates and treated with working solutions of the respective compounds as previously described. Plates were incubated (37 °C, 5% CO2) for 90 min, allowing the compounds to enter the cells. Then, one plate was exposed to UV light (Luzchem reactor, 350 nm, 8 lamps, in total 8 W, dose 50.6 mWm^−2; ~18 cm lamp to cell-plate) for 5 min, 3 days in a row at the same time each day, while the other plate was left in the cell incubator in the dark and served as a control.

BSA = BSA (Bos taurus, UniProt P02769); assay: Fluorimetric titration with BSA, Scatchard equation; format: binding, bovine; settings: I = 0.05 M; for Kd: pH 7, sodium cacodylate buffer, read-out: Binding constant logKs BSA (converted)
BSA, sequence (P02769 25-607): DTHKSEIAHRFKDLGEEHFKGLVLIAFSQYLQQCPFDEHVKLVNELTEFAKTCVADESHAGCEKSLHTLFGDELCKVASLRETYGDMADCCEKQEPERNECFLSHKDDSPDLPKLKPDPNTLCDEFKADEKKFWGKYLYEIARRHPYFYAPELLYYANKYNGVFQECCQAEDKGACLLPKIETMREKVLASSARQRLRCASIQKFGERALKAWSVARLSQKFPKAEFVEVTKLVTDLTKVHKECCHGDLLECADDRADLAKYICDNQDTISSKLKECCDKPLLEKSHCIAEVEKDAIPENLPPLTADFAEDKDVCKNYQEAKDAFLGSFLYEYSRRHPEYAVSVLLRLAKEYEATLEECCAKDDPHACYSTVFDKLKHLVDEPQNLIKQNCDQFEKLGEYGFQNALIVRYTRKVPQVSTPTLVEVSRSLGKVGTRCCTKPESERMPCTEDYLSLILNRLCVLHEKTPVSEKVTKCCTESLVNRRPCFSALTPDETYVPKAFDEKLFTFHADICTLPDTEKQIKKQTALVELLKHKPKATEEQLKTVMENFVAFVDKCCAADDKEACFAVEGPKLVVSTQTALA
Method: (§1) Experiments were conducted in an aqueous buffer solution (pH = 7.0 or pH= 5.0, I = 0.05 M, sodium cacodylate buffer). For the UV-Vis spectra were used Varian Cary 100 Bio spectrometer, for fluorescence spectra we used the Varian Cary Eclipse fluorimeter and for CD spectra we used the JASCO J815 spectropolarimeter, all conducted at 25.0 °C using appropriate quartz cuvettes (path length: 1 cm).
As the pharmacokinetic properties of small molecules often depend on a binding affinity toward transport proteins (such as serum albumin), we performed fluorimetric titrations with BSA. The emission of both 1M and 2M (Supplementary Information, Figures S15 and S16), was strongly quenched, with compound 2M showing a lower affinity in comparison to ds-DNA/RNA, while the affinity of 1M was similar to that towards ds-DNA/RNA (Table 2).
(§2) Processing of fluorimetric titrations by means of the Scatchard equation [56, 57] yielded binding constants (Table 2). […] Affinities of 1 and 2 toward BSA were the same at both pH values, supporting the conclusion that neutral forms of 1 and 2 were bound.

ct-DNA = assay: Fluorimetric titration with ct-DNA, Scatchard equation; format: binding, calf; design: key: The changes were too small to allow an accurate calculation of the binding constant; settings: I = 0.05 M
Method: as §1
Polynucleotides were purchased as noted: poly dAdT-poly dAdT, poly dGdC-poly dGdC, poly A-poly U (ds-RNA), (Sigma-Aldrich, Schnelldorf, Germany), calf thymus (ct)-DNA (Sigma-Aldrich, Schnelldorf, Germany) and dissolved in sodium cacodylate buffer, I = 0.05 M, pH = 7.0. The ct-DNA was sonicated and filtered through a 0.45 µm filter to obtain mostly short (ca. 100 base pairs) rod-like B-helical DNA fragments. The concentration of DNA or RNA was determined spectroscopically as the c(nucleobase) using producer-provided molar extinction coefficients.
Fortunately, strong emission from the compounds studied allowed fluorimetric titrations to be performed at much lower concentrations of the dyes (c = 5 × 10^−8 M), thus preventing precipitation of non-methylated 1 or 2, and allowing for the collection of numerous data points at excess of DNA/RNA binding sites over c(dye). […] Intriguingly, mixed sequence ct-DNA caused emission quenching of 1M at an excess of dye over ct-DNA (r > 0.1), and such quenching could be attributed to aggregation of 1M along DNA, while at an excess of ct-DNA over dye (r << 0.1), emission increased. The emission of 2M was indiscriminately quenched by all ds-DNA/RNA (Figure 2d).
as §2

pUC19 plasmid DNA = assay: Plasmid electrophoresis, photoinduced DNA nuclease activity; format: biochemical; settings: 100 μM compound; for Photo-induced nuclease activity on plasmid DNA: 1 μg pUC19, UV light 15 and 45 s; for Effect on plasmid DNA forms without UV irradiation: 1 μg pUC19, non-irradiated
Method: Plasmid electrophoresis. For assessing the photoinduced DNA nuclease activity of compounds 2M, 1 and 1M, 1 μg of pUC19 plasmid DNA (2686 pb) was incubated with a 100 μM solution of the respective compound, and exposed to UV light (using a xenon arc lamp, Oriel, Stratford, CT, USA) for 15 and 45 s. After the treatment plasmid samples were run on 0.5% agarose gel, and stained with Midori Green DNA binding dye (Nippon Genetics, Düren, Germany). Non-irradiated samples containing compounds and plasmid DNA served as a control for assessing the photoinduced nuclease activity of the compound. Plasmid without the compound was irradiated with UV light under the same conditions to determine whether UV light itself induces changes in plasmid DNA forms (linear and supercoiled form). After gel electrophoresis, plasmid DNA forms were visualised on a UVITEC Imager (Cleaver Scientific, Rugby, UK).

[3] = A549, UV-irradiated (350 nm, 5 min, 3 days in a row)

C[n+]1ccc(-c2cc3ccc4cccc5ccc(c2)c3c45)cc1 [1M, 2-para-N-methylpyridinium pyrene]
Cell size (FSC) (A549 cells [1]): increase in cell size | Ratio of IC50 non-irradiated vs UV-irradiated (A549 cells [2]): 15 | Cytotoxic effect (A549 cells [2]): considerable cytotoxic effects | IC50 (A549 cells [2]; [3]): 100 nM | IC50 (A549 cells [2]; A549, non-irradiated): 1500 nM | Kd (BSA): 3980 nM | Binding constant logKs ct-DNA (ct-DNA; pH 7, sodium cacodylate buffer): 5.5 | Photo-induced nuclease activity on plasmid DNA (pUC19 plasmid DNA): strong photo-induced nuclease activity | Effect on plasmid DNA forms without UV irradiation (pUC19 plasmid DNA): nicking of the plasmid DNA

C[n+]1ccc(-c2cc3ccc4cc(-c5cc[n+](C)cc5)cc5ccc(c2)c3c45)cc1 [2M]
Cell size (FSC) (A549 cells [1]): increase in cell size | Ratio of IC50 non-irradiated vs UV-irradiated (A549 cells [2]): four times | Cytotoxic effect (A549 cells [2]): considerable cytotoxic effects | IC50 (A549 cells [2]; [3]): 2000 nM | IC50 (A549 cells [2]; A549, non-irradiated): 8000 nM | Kd (BSA): 126 nM | Binding constant logKs ct-DNA (ct-DNA; pH 7, sodium cacodylate buffer): 8.8 | Photo-induced nuclease activity on plasmid DNA (pUC19 plasmid DNA): strong photo-induced nuclease activity | Effect on plasmid DNA forms without UV irradiation (pUC19 plasmid DNA): unwinding of supercoiled DNA even without UV irradiation

c1cc2ccc3cc(-c4ccncc4)cc4ccc(c1)c2c34 [compound 1]
Cell size (FSC) (A549 cells [1]): increase in cell size | Ratio of IC50 non-irradiated vs UV-irradiated (A549 cells [2]): four times | Cytotoxic effect (A549 cells [2]): considerable cytotoxic effects | IC50 (A549 cells [2]; [3]): 2000 nM | IC50 (A549 cells [2]; A549, non-irradiated): 8000 nM | Binding constant logKs BSA (BSA; pH 5, sodium cacodylate buffer): 5.5 | Kd (BSA): 3160 nM | Binding constant logKs ct-DNA (ct-DNA; pH 5, sodium cacodylate buffer): 5.3 | Binding constant logKs ct-DNA (ct-DNA; pH 7, sodium cacodylate buffer): b | Photo-induced nuclease activity on plasmid DNA (pUC19 plasmid DNA): did not show any influence on DNA plasmid forms
